# Measurements taken from PMC7618122 (American journal of physiology. Heart and circulatory …, 2025).
# Molecular target: T1, Nav1.5 (Homo sapiens, UniProt Q14524, F1760A)
# T1 construct: gene SCN5A
smiles,measurement,value
"Cc1cccc(C)c1OCC(C)N (stereo not shown) [MEXI, mexiletine]",whole-cell patch clamp of tsA201 cells after 24-h incubation with 100 μM; effect,"Nav1.5-F1760A peak INa densities, on the other hand, were significantly enhanced after 24-h incubation with MEXI"
